Experimental data reported in publication PMC10110893, “[…]-derived synthetic cannabinoids inhibit T-type calcium channels with divergent effects on seizures in rodent models of epilepsy” (Frontiers in Physiology, 2023).
Like-named read-outs stand apart in the source and are kept apart here.

What was measured:
human Cav3.1 = biological target: T1, human Cav3.1 (Homo sapiens, UniProt O43497); test: FLIPR calcium flux assay, Cav3.1; type: cell-based
T1 construct: expressed in transfected cells; host or cells: HEK293 FlpIn T-Rex cells (Invitrogen)
T1 sequence (O43497 whole entry): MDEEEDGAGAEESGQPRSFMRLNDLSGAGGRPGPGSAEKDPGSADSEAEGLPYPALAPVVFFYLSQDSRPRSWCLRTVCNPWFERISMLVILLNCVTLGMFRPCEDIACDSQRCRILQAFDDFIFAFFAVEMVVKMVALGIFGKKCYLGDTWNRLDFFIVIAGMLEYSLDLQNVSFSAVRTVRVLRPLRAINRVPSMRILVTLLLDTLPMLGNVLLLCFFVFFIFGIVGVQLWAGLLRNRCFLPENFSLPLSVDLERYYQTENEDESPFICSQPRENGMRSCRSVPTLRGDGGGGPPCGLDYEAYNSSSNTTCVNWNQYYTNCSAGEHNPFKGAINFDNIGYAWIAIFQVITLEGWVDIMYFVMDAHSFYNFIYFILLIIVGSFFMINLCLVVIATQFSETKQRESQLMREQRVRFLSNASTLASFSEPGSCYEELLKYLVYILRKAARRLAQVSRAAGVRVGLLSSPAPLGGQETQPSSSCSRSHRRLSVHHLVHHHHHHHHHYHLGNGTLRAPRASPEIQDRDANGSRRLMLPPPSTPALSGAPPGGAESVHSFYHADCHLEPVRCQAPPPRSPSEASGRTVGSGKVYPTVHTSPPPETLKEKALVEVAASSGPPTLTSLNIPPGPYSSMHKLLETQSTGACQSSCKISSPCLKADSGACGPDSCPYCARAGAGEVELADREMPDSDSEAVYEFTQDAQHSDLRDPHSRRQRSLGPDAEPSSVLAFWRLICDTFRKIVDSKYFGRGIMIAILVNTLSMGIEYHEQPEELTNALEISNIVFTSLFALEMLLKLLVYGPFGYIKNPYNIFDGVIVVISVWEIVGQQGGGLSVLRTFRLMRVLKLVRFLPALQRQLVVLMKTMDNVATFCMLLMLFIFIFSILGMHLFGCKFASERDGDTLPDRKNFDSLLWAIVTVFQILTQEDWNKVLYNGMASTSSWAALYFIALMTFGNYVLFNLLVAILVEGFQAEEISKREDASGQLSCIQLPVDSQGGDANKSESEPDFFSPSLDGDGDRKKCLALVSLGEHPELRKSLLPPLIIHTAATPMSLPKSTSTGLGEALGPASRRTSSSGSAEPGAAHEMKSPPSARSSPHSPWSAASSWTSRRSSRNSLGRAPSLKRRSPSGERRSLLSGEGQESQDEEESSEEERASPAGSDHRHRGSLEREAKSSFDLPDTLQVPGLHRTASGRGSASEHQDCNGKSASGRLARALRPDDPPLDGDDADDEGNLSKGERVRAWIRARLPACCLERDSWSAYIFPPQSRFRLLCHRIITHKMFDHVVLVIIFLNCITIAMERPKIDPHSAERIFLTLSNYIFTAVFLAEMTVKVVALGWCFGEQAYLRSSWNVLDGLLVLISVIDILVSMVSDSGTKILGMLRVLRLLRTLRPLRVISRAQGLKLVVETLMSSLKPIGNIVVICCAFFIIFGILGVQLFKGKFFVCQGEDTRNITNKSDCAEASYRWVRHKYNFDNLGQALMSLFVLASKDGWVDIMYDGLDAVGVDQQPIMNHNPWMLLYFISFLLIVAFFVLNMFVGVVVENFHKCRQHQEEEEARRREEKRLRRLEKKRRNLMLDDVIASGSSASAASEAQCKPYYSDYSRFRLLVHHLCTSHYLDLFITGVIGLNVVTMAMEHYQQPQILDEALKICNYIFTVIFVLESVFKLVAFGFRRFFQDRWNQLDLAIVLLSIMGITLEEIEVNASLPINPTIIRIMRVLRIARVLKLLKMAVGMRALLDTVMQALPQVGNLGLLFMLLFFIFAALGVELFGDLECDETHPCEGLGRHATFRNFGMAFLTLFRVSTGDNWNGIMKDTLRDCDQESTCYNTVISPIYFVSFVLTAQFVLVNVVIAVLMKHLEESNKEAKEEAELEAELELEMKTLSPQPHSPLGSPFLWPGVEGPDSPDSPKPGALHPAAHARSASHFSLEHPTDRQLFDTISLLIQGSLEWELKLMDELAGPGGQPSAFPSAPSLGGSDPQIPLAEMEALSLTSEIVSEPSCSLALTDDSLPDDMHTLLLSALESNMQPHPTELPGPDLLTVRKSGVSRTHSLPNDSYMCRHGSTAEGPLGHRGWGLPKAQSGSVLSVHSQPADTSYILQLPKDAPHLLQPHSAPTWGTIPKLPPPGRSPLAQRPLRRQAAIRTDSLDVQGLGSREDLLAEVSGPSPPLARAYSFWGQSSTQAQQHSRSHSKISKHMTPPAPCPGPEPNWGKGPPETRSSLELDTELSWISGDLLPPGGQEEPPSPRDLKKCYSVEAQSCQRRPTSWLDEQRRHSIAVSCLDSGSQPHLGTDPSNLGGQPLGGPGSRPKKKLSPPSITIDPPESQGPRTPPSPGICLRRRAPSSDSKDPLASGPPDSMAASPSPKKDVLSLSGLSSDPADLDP
Method: (§1) HEK293 FlpIn T-Rex cells (Invitrogen, CA, United States) stably expressing human Cav3.1, Cav3.2, or Cav3.3 were maintained in Dulbecco’s Modified Eagle Medium (DMEM) supplemented with 10% foetal bovine serum (FBS), 1% penicillin-streptomycin (P/S) at 37°C, and 5% CO2 as previously described ([Bladen et al., 2021]; [Udoh et al., 2022]). Hygromycin (80 μg/mL) and blasticidin (15 μg/mL) were used as selection antibiotics and cells were passaged at 80% confluency. For experiments, cells were resuspended in Leibovitz’s L-15 media (containing 1% FBS, 1% P/S, 15 mM glucose, 2 μg/mL tetracycline), plated in black, clear-bottomed poly-D-lysine-coated 96-well plates (90 μL) (Corning, NY, United States), and incubated overnight in ambient air at 37°C. All compounds tested in cellular assays were prepared as stock solutions in DMSO and final DMSO concentration was 0.1%.
(§2) Intracellular calcium flux was measured using a fluorometric imaging plate-reader (FLIPR) Calcium 5 Assay Kit and FlexStation 3 Microplate Reader (Molecular Devices, San Jose, United States). Calcium 5 dye (90 μL) prepared in low potassium HBSS (Thermo Fisher Scientific) containing (in mM) 145 NaCl, 22 HEPES, 0.338 Na2HPO4, 4.17 NaHCO3, 0.441 KH2PO4, 0.407 MgSO4, 0.493 MgCl2, 1.26 CaCl2, 5.56 glucose, and […] with pH 7.4 was applied to each well and incubated for 1 h at 37°C, ambient air prior to testing.
(§3) Fluorescence readings were taken at 2 s intervals (λ excitation = 485 nm, λ emission = 525 nm). Following 2 min baseline reading, 20 μL of SB2193, SB2193F, or NNC 55-0396 (10 nM—10 μM) was added to cells and read for 5 min, then CaCl2 (10 mM) was added and read for 3 min. Baseline fluorescence averaged over the 20 s interval preceding CaCl2 addition was subtracted and normalized to the vehicle response. Changes in fluorescence were measured in relative fluorescence units (RFU). All compounds were assayed in ≥ five independent experiments (n = 5–8) performed in duplicate. Order of compound addition and location on the plate were varied between replicates. Data was fit to a four-parameter non-linear dose-response curve using GraphPad Prism 8.2.0 software (La Jolla, United States) to determine IC50 values.

human Cav3.3 = biological target: T2, human Cav3.3 (Homo sapiens, UniProt Q9P0X4); test: FLIPR calcium flux assay, Cav3.3; type: cell-based
T2 construct: expressed in transfected cells; host or cells: HEK293 FlpIn T-Rex cells (Invitrogen)
T2 sequence (Q9P0X4 whole entry): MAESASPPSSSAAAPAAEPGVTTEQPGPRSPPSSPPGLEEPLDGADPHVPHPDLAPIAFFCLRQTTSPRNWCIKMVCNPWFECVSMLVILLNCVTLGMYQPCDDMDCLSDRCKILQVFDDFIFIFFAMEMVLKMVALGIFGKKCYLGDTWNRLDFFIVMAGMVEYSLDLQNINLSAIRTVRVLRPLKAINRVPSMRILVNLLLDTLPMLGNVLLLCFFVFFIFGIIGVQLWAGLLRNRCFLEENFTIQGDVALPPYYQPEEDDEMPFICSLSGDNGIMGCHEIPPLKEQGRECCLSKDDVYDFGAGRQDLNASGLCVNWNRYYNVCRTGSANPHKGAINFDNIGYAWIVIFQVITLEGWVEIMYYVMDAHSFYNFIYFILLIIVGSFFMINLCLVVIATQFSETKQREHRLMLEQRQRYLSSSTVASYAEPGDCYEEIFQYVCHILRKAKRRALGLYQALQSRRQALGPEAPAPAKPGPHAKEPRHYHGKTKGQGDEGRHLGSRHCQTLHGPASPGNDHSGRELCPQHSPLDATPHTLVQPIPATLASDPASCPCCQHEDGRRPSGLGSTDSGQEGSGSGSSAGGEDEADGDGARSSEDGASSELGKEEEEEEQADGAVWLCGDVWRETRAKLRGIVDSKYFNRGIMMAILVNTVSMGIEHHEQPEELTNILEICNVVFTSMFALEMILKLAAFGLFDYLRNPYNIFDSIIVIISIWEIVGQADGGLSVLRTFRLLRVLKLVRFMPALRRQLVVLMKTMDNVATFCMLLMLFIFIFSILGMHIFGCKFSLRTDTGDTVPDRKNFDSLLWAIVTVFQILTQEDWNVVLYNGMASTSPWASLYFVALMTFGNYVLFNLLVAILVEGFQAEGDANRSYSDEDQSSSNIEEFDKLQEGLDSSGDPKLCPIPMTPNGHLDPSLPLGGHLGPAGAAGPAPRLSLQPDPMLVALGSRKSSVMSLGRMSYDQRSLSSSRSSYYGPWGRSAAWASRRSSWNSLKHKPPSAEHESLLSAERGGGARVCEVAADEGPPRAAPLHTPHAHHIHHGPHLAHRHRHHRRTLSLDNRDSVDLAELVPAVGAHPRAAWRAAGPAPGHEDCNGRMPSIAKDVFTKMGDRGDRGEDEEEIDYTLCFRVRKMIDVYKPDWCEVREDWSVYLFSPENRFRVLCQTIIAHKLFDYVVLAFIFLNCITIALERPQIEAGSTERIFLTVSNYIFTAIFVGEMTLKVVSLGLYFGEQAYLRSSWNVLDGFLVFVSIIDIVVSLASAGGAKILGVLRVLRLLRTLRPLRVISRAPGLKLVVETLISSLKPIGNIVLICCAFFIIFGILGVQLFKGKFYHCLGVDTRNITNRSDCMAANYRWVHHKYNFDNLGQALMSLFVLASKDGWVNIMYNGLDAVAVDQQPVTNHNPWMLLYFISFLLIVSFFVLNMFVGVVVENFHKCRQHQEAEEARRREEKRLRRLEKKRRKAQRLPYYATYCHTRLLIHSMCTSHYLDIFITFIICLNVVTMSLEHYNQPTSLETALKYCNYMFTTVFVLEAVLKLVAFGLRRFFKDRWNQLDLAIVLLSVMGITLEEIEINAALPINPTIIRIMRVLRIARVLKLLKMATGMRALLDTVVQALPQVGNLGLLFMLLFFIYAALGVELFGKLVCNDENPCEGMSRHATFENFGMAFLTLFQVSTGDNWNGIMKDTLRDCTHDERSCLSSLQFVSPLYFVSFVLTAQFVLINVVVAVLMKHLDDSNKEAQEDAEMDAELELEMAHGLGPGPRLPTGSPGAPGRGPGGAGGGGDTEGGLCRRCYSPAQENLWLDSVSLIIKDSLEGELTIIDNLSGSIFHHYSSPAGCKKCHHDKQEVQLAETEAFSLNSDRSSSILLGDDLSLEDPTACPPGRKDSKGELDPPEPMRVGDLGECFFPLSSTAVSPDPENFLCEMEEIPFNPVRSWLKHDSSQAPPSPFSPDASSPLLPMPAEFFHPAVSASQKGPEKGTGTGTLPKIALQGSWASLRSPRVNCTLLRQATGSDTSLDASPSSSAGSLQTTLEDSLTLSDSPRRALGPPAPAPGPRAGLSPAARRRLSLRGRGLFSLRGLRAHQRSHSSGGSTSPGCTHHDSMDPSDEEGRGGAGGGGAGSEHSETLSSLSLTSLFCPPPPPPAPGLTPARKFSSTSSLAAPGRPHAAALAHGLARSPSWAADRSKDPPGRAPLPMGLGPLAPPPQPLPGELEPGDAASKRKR
Method: as §1, §2, §3

human Cav3.2 = biological target: T3, human Cav3.2 (Homo sapiens, UniProt O95180); test: FLIPR calcium flux assay, Cav3.2; type: cell-based
T3 construct: expressed in transfected cells; host or cells: HEK293 FlpIn T-Rex cells (Invitrogen)
Method: Intracellular calcium flux was measured using a fluorometric imaging plate-reader (FLIPR) Calcium 5 Assay Kit and FlexStation 3 Microplate Reader (Molecular Devices, San Jose, United States). […]
Fluorescence readings were taken at 2 s intervals (λ excitation = 485 nm, λ emission = 525 nm). […] Baseline fluorescence averaged over the 20 s interval preceding CaCl2 addition was subtracted and normalized to the vehicle response. Changes in fluorescence were measured in relative fluorescence units (RFU). […]

[1] = Pharmacokinetics in mouse plasma and brain after single i.p. injection; type: in vivo; details: both sexes, 10 mg/kg i.p.; for Tmax / half-life / Cmax: wildtype F1, ip; for AUC: wildtype F1, mouse, 10 mg/kg
Method: SB2193 and SB2193F were prepared in ethanol-Tween 80%–0.9% saline (1:1:18 ratio) and valproic acid in 0.9% saline. All doses were completely soluble in this vehicle except for the 100 mg/kg SB2193 dose, which was a suspension.
Male and female wildtype F1 mice aged 21–28 days postnatal received a single i. p. injection of 10 mg/kg SB2193 or SB2193F. At selected timepoints (15–240 min), mice were anesthetised with isoflurane, blood was collected via cardiac puncture and whole brains were harvested. Brains were snap frozen on dry ice, and blood plasma was isolated via centrifugation (4,000 g for 10 min, 4^○C). Brain and plasma samples were stored at −80°C until assayed.
Plasma samples (50 μL) were spiked with an internal standard (diazepam) and vortexed with 1 M NaOH (50 μL) and methyl tert-butyl ether (1 mL) to achieve protein precipitation. The organic layer was isolated by centrifugation (4,000 g for 3 min) before being frozen for 60 min at −80°C, evaporated to dryness using N2, and reconstituted in 30% acetonitrile and 0.1% formic acid in water for analysis. Brain hemispheres were homogenised in a 10x w/v 1:1 methanol-water solution using a Biospec Tissue-Tearor (Bartlesville, United States) and centrifuged at 20,000 g for 30 min at 4°C. Supernatant (100 μL) was collected and prepared following the same method as plasma.
SB2193 and SB2193F concentrations in brain and plasma samples were assessed by high performance liquid chromatography-tandem mass spectrometry (HPLC-MS/MS) using a Shimadzu Nexera liquid chromatograph coupled with a Shimadzu 8,030 triple quadrupole mass spectrometer (Kyoto, Japan). Samples were run through a Zorbax C18 HPLC Column equipped with a Zorbax Eclipse XDB-C8 guard column (2.1 × 50 mm, 3.5 μm particle size; Agilent, Santa Clara, United States) with an injection volume of 10 μL using a gradient elution. Mobile phases of acetonitrile and 0.1% formic acid in water were delivered at a flow rate of 0.6 mL/min over 4.16 min, with a stepwise adjustment of mobile phase concentration gradient over time to optimise ion separation.
Quantification was achieved by comparing experimental samples to plasma and brain standards prepared with known concentrations of SB2193 or SB2193F. Samples were quantified against a 7-point standard curve (R ^2 > 0.98 for both analytes).
Concentrations of SB2193 or SB2193F in plasma and brain at each timepoint were averaged and concentration-time curves were generated using GraphPad Prism. Pharmacokinetic parameters were calculated using non-compartmental analysis. The linear-log trapezoidal method was used to calculate drug exposure (area under the curve, AUC) using equations previously described ([Hawkins et al., 2017]).

T-type channels = test system: T-type channels; design: method as in Kevin et al., 2022; details: single 10 μM concentration, FLIPR calcium flux and whole-cell patch clamp, ref Kevin et al., 2022; cited from earlier work
[2] = test system: cannabinoid CB1 receptors; design: method as in Kevin et al., 2022; details: ref Kevin et al., 2022; cited from earlier work
[3] = test system: 6 Hz-induced seizures in Swiss mice; design: method as in Barton et al., 2001; details: 6 Hz model, ref Barton et al., 2001; cited from earlier work
[4] = test system: 6 Hz-induced seizures in Swiss mice; test: 6 Hz seizure model in mice; type: in vivo, mouse; details: 300 mg/kg i.p., positive control, n = 10
Method: Swiss outbred mice used in 6 Hz seizure experiments were purchased from Australian Resources Centre (stock ARC(S); Canning Vale, Australia) and single housed for 1 week prior to experimentation to prevent fighting.
6 Hz seizures were induced in Swiss male mice (9–10 weeks old) using an Ugo Basile electroconvulsive therapy unit (Model 57,800; Gemonio, Italy). Mice were pre-treated with vehicle, SB2193 (10 mg/kg, 30 mg/kg, 100 mg/kg) or valproic acid (300 mg/kg) via i.p. injection 15 min before seizure induction based on the time-to-peak brain concentration determined in pharmacokinetic studies. […] A drop of 0.5% tetracaine was applied to both corneas immediately following the i.p. injection to provide local anaesthesia. Immediately prior to the electrical stimulation, saline was applied to each cornea to ensure electrical conductivity. Corneal electroshocks were administered at 44 mA, 6 Hz, 3 s shock duration, with a […] rectangular pulse width. Mice were shocked and scored by an observer blinded to treatment for the presence of twitching of the vibrissae, stun, myoclonus, rearing, forelimb clonus, and/or Straub tail. […] The ED50 for SB2193 was calculated using computer-assisted log-probit linear regression analysis ([Litchfield and Wilcoxon, 1949]). A χ^2 test was performed to assess statistical significance.

[5] = FLIPR calcium flux, HEK293 cells, n = 5–8

## CC(C)[C@H]1c2ccc(F)cc2CC[C@@]1(CCN(C)CCCc1nc2ccccc2[nH]1)OC(=O)C1CC1 [NNC 55-036, reference compound]
Human Cav3.1; [5]
  Cav3.1 pIC50: 5.9 ± 0.06
Human Cav3.1; FLIPR calcium flux, HEK293 cells, n = 5–8, read-out: Cav3.1 IC50
  IC50: 1.3 µM
Human Cav3.3; [5]
  Cav3.3 pIC50: 5.9 ± 0.06
Human Cav3.3; FLIPR calcium flux, HEK293 cells, n = 5–8, read-out: Cav3.3 IC50
  IC50: 1.2 µM

## CC(C)(C)OC(=O)N1CCN(C(=O)c2cn(CCCCCF)c3ccccc23)CC1 [SB2193F]
Human Cav3.1
  IC50: 2.3 µM
Human Cav3.2
  IC50: 3.16 µM
Human Cav3.3
  IC50: 8.6 µM
[1]; wildtype F1, brain/plasma, ip, mouse, read-out: brain-plasma ratio
  Kp: 0.48
[1]; mouse brain
  Tmax: ≤ 15 min
  half-life: 14 min
[1]; mouse brain, read-out: Cmax
  Cmax: 2300 ± 300 nM
[1]; mouse brain, read-out: Cmax (μg/mL)
  Cmax: 0.97 ± 0.1 µg/mL
[1]; mouse plasma
  Tmax: ≤ 15 min
  half-life: 23 min
[1]; mouse plasma, read-out: Cmax
  Cmax: 3100 ± 700 nM
[1]; mouse plasma, read-out: Cmax (μg/mL)
  Cmax: 1.3 ± 0.3 µg/mL
[1]; brain, ip, mouse brain, brain concentration converted assuming density of 1 g/mL
  AUC: 350 ng·h/mL
[1]; plasma, ip, mouse plasma
  AUC: 733 ng·h/mL
T-type channels
  inhibition of T-type channels: strongly inhibit
[2]
  activity at cannabinoid CB1 receptors: minimal activity

## CCC1(C)CC(=O)NC1=O (centres unmarked) [ethosuximide]
[3]
  ED50: > 600 mg/kg

## CCCCCn1cc(C(=O)N2CCN(C)CC2)c2ccccc21 [reference compound]
[2]
  activity at cannabinoid CB1 receptors: minimal activity

## CCCC(CCC)C(=O)O [valproic acid, reference compound]
[4]
  protection from seizures compared to vehicle: significant protection
